Measurements reported in article PMC7930564, “First Case of Glyphosate Resistance in Bromus catharticus Vahl.: Examination of Endowing Resistance Mechanisms” (Frontiers in Plant Science, 2021).

Tested on: T1, EPSPS (5-enolpyruvylshikimate-3-phosphate synthase), glyphosate-resistant (R) population
T1 construct: native enzyme in leaf extract (total soluble protein) of R plants, not recombinant; no target-site substitution at codons 101, 102, 103, 106, 144, 192; homoeologous copies not resolved
Experiment: phosphate release, EnzChek Phosphate Assay Kit, […] nm, leaf extract
Type: biochemical, Bromus catharticus
Details: substrates phosphoenolpyruvate and shikimate-3-phosphate; glyphosate 0 to 5,000 μM; Figure 6 legend fit prints 0.16; read-out: I50

O=C(O)CNCP(=O)(O)O [glyphosate, N-phosphonomethyl glycine]
IC50: 150 nM
